Read-outs that look alike come from different tables or passages of the source.
Assays:
PDE4B2 = biological target: T1, PDE4B2 (Homo sapiens, UniProt Q07343); experiment: Effect of compounds on PDE4B2 activity (fluorescence polarization kit); format: biochemical
T1 construct: purchased BPS Bioscience 60343
Procedure: The effect of compounds on PDE4B2 activity was detected by a fluorescence polarization kit (BPS Bioscience, Catalog #60343). According to the instructions of the kit, FAM-Cyclic-3′,5′-AMP at a final concentration of […], 1 ng/well of PDE4B2 (PDE buffer was added to the negative control well), and a compound diluted in a gradient manner (PDE buffer containing 10% DMSO was added to the positive control well) were added to each well, fully mixed, and then reacted at room temperature for 1 h. The Binding Agent was diluted with the Binding Agent Diluent (cAMP) at a ratio of 1:100 for later use, the Binding Agent dilution was taken and added to the test plate at 50 μl/well and incubated at room temperature with slow shaking for 20 minutes. After the incubation was complete, Envision was used for FP detection, with Excitation at 480 nm and Emission at 535 nm. FP was usually represented by mP value.
[formula] • I∥ (S535): fluorescence intensity in parallel direction • I⊥ (P535): fluorescence intensity in perpendicular direction • G: G factor=1
(§1) [formula] • mP(sample): mP of the test compound in a reaction well • mP(negative control): mP in the negative control well • mP(positive control): mP in the positive control well
(§2) According to the calculated inhibition rate at each concentration, the IC50 value of each compound was calculated by GraphPad Prism 8 software.

PDE4D2 = biological target: T2, PDE4D2 (Homo sapiens, UniProt Q08499); experiment: Effect of compounds on PDE4D2 activity (fluorescence polarization kit); format: biochemical; details: class symbols
T2 construct: purchased BPS Bioscience 60345
Procedure: The effect of compounds on PDE4D2 activity was detected by a fluorescence polarization kit (BPS Bioscience, Catalog #60345). During the reaction, 12.5 μL of 0.272 ng/well of an enzyme (final concentration: 0.068 ng/well) and 12.5 μL of the compound diluted in a gradient manner (DMSO concentration: 4%) were first pre-incubated at room temperature for 15 minutes, the same volume of the enzyme at the same concentration and 12.5 μL of PDE buffer containing 4% DMSO were added to the positive control well, and 25 μL of PDE buffer containing 2% DMSO was added to the negative control well. After completion, 25 μL of […] FAM-Cyclic-3′,5′-AMP (final concentration: […]) was added to each well, fully mixed, and then incubated at room temperature with slow shaking for 30 minutes. The Binding Agent was diluted with the Binding Agent Diluent (cAMP) at a ratio of 1:100 for later use, 100 μl/well of the Binding Agent dilution was taken and added to all wells of the test plate and incubated at room temperature with slow shaking for 1 hour.
After the incubation was complete, BMG LRBTECH microplate reader was used for FP detection, with Excitation at 485 nm and Emission at 520 nm. FP was usually represented by mP value.
[formula] • I∥ (S520): fluorescence intensity in parallel direction • I⊥ (P520): fluorescence intensity in perpendicular direction • G: G factor=1
as §1, §2

[1] = Pharmacokinetic test in beagle dogs; format: in vivo
Procedure: 6.1 Experimental animals: male beagle dogs, about 8-11 kg, 6 beagle dogs/compound, purchased from Beijing Marshall Biotechnology Co., Ltd.
6.2 Experimental method: On the day of the experiment, 18 beagle dogs were randomly grouped according to their body weights. The animals were fasted with water available for 12-14 h one day before administration and fed 4 h after administration. Administration was carried out according to Table 8.
Before and after administration, 1 ml of blood was taken from the jugular vein or limb vein and placed in an EDTAK2 centrifuge tube. Centrifugation was carried out at 5000 rpm at 4° C. for 10 min, and plasma was collected. The blood collection time points for the intravenous group and intragastric group were both 0 min, 5 min, 15 min, 30 min, 1 h, 2 h, 4 h, 6 h, 8 h, 10 h, 12 h, 24 h, 48 h, and 72 h. Before analysis and detection, all the samples were stored at −80° C., and the samples were subjected to quantitative analysis using LC-MS/MS.

[2] = Pharmacokinetic test in mice; format: in vivo, ICR mice
Procedure: 5.1 Experimental animals: Male ICR mice, 20-25 g, 6 mice/compound. Purchased from Chengdu Ddossy Experimental Animals Co., Ltd.
5.2 Experimental design: On the day of the experiment, 42 ICR mice were randomly grouped according to their body weights. The animals were fasted with water available for 12-14 h one day before administration and fed 4 h after administration.
Before and after administration, 0.06 mL of blood was taken from the orbit under isoflurane anesthesia and placed in an EDTAK2 centrifuge tube for centrifugation at 5000 rpm at 4-C for 10 min, followed by plasma collection. The blood collection time points for the intravenous group and intragastric group were both 0 m, 5 mi, 15 mi, 30 mi, 1 h, 2 h, 4 h, 6 h, 8 h, and 24 h. Before analysis and detection, all the samples were stored at −80° C., and the samples were subjected to quantitative analysis using LC-MS/MS.

PDE4B1 = biological target: T3, PDE4B1 (Homo sapiens, UniProt Q07343); experiment: Effect of compounds on PDE4B1 activity (IMAP fluorescence polarization kit); format: biochemical; details: class symbols
T3 construct: purchased BPS 60041
Procedure: The IMAP Reaction Buffer containing 0.1% BSA (5×) in the kit was diluted into a 1-fold reaction buffer containing 1 mM DTT. 0.12 nM PDE4B1 (BPS, Cat #60041) was added to the 1-fold reaction buffer to form a 2-fold enzyme solution. 10 μL of the 2-fold enzyme solution was added to wells of a 384-well reaction plate. For the negative control well, 10 μL of the 1-fold reaction buffer was used instead of the enzyme solution. Centrifugation at 1000 rpm for 1 minute and incubation at room temperature for 15 minutes were carried out. 0.2 uM FAM-labeled cAMP (FAM-cAMP, Molecular Device, Cat #R7506) was added to the 1-fold reaction buffer to form a 2-fold substrate solution. 10 μL of the 2-fold substrate solution was added to each well of the 384-well reaction plate. Centrifugation at 1000 rpm for 1 minute was carried out. A reaction was carried out at room temperature for 20 minutes. IMAP Progressive Binding Buffer A (5×), IMAP Progressive Binding Buffer B (5×), and IMAP Progressive Binding Reagent (provided by IMAP FP IPP Explorer Kit) were prepared into a reaction stop solution according to the instructions for use. 60 μL of an […] reaction stop solution was added to each well of the 384-well reaction plate to stop the reaction, and the reaction product was centrifuged at 1000 rpm for 1 minute. Incubation at room temperature in the dark for 60 minutes was carried out. The mP values (Ex480/Em535 (s), Em535 (p)) were read by a microplate reader (Envision).
FP was usually represented by mP value. mP value for FP measurement=1000*(S−G*P)/(S+G*P) • S: fluorescence intensity in parallel direction • P: fluorescence intensity in perpendicular direction • G: G factor=1
as §1
According to the calculated inhibition rate at each concentration, the IC50 value of each compound was calculated by XLFit excel add-in version 5.4.0.8 software.
Y=Bottom+(Top−Bottom)/(1+(IC50/X)^HillSlope) Fitting formula: […]

[3] = Inhibition of LPS-induced TNF-α release from human peripheral blood mononuclear cells in vitro; format: cell-based; details: PBMC, hPBMC, 100 ng/mL LPS, 4 h; for IC50: class symbols, read-out: Re IC50 (nM) (relative IC50), TNF-α induced by LPS; for Emax: read-out: Max inhibition (%)
Procedure: Normal human peripheral blood which was anticoagulated (citric acid anticoagulation) was collected, and hPBMCs were prepared by Ficoll-Paque PLUS (Cytiva, Cat #17144002, density 1.077 g/mL). The concentration of hPBMC cells was adjusted to 0.25×10^6 cells/mL with RPMI1640 medium and inoculated into a 96-well plate in an amount of 50000 cells per well. Subsequently, different concentrations of drugs were added for pre-incubation for 1 h (the DMSO final concentration was 0.1%, and the positive and negative control wells had the same volume of RPMI1640 containing 0.1% DMSO). After the pre-incubation was complete, 100 ng/mL LPS (SIGMA, L2630) was added to the compound and positive control wells, and the negative control well had the same volume of RPMI1640 containing 0.1% DMSO. Incubation was carried out for 4 h in an incubator at 37° C. and 5% CO2. The cell supernatant was collected, and the content of TNF-α in the supernatant sample was detected by human TNF-α Elisa quantitative test kit (Sino Biological, Cat #KIT10602). The IC50 value was calculated using GraphPad Prism software.

[4] = class symbols, read-out: PDE4B2 IC50
[5] = male, dog, iv, plasma, i.v. (1 mg/kg)
[6] = male, dog, po, plasma, i.g. (5 mg/kg)
[7] = male, ICR, mouse, iv, plasma, i.v. (5 mg/kg)
[8] = male, ICR, mouse, po, plasma, i.g. (10 mg/kg)

T2 sequence (Q08499 303-809): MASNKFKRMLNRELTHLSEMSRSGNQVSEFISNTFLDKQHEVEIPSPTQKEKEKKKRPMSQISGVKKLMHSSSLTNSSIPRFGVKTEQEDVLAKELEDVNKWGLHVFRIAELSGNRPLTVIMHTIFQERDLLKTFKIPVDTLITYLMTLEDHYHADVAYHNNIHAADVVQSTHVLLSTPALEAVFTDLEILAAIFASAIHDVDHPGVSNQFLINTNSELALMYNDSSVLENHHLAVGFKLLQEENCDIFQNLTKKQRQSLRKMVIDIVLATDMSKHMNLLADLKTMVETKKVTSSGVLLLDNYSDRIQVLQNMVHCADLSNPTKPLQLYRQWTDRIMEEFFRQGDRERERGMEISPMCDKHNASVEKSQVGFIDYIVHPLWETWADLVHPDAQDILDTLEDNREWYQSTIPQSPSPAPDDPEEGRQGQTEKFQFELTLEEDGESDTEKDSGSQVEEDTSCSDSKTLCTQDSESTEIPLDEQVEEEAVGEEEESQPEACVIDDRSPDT
T3 sequence (Q07343 whole entry): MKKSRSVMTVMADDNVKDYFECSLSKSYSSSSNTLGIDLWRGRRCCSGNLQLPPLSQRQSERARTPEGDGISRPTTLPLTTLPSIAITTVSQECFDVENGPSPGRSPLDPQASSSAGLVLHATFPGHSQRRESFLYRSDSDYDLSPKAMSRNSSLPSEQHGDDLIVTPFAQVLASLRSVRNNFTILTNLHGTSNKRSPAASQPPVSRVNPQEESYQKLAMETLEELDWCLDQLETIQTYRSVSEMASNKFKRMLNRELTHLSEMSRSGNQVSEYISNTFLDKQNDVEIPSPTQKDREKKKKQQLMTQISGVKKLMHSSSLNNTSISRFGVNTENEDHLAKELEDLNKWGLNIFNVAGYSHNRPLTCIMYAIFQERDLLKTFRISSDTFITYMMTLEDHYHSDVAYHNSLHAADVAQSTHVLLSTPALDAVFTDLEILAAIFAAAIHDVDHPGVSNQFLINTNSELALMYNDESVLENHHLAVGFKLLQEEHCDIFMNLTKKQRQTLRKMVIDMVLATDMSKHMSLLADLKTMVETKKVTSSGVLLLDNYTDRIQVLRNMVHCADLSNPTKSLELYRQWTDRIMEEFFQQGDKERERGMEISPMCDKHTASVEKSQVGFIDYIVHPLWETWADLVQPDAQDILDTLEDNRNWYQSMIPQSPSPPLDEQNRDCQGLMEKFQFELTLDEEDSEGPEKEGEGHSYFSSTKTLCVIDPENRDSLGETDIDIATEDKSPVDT
T1 sequence (Q07343 1-564 isoform Q07343-2): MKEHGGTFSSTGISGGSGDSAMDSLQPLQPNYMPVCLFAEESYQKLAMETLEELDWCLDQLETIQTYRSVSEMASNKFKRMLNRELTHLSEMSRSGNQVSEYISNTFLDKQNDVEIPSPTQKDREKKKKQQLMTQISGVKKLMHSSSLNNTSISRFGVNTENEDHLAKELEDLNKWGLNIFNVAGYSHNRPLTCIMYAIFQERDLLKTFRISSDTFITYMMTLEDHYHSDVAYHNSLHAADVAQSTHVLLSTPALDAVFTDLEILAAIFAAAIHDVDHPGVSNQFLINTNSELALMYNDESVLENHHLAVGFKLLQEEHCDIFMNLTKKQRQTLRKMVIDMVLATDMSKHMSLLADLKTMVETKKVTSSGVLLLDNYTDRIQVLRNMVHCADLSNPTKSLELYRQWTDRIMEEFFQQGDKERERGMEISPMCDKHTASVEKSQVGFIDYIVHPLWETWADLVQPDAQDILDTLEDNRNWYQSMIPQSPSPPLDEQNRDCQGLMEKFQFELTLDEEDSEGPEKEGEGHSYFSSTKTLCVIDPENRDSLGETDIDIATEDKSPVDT

| SMILES | IC50 (PDE4B2; [4]) [nM] | IC50 (PDE4D2) [nM] | IC50 (PDE4B1) [nM] | IC50 [3] [nM] | Emax [3] [%] | further results |
| --- | --- | --- | --- | --- | --- | --- |
| [O-][S@+]1CCc2nc(N3CCC=C(c4ccc(Cl)cc4)CC3)nc(NC3(CO)CCC3)c21 [Compound 5] | < 10 | < 10 |  |  |  | IC50 (PDE4B2; values in text, read-out: IC50 against PDE4B2): 8.1 nM; F ([1]; i.g. (5 mg/kg)): ≥98%; AUC(0-t) [1, 5]: 1200 ± 210 ng·h/mL; clearance [1, 5]: 13.8 ± 2.3 mL/min/kg; half-life [1, 5]: 3.91 ± 0.037 h; Vd ([1]; male, dog, iv, plasma, i.v. (1 mg/kg), read-out: Vdss): 4.16 ± 0.76 L/kg; AUC(0-t) [1, 6]: 5020 ± 1700 ng·h/mL; half-life [1, 6]: 6.32 ± 2.1 h; F ([2]; i.g. (10 mg/kg)): 91.9 ± 7.5%; AUC(0-t) [2, 7]: 7400 ± 1110 ng·h/mL; clearance [2, 7]: 5.71 ± 0.86 mL/min/kg; half-life [2, 7]: 2.72 ± 0.23 h; Vd ([2]; male, ICR, mouse, iv, plasma, i.v. (5 mg/kg), read-out: Vdss): 1.31 ± 0.12 L/kg; AUC(0-t) [2, 8]: 27200 ± 2230 ng·h/mL; half-life [2, 8]: 3.42 ± 0.16 h |
| [O-][S+]1CCc2nc(N3CC4C(C3)C4c3ccc(Cl)cc3)nc(NC3(CO)CCC3)c21 (stereo not shown) [Compound 20] | 10 to 50 | < 10 | < 10 |  |  |  |
| [O-][S@+]1CCc2nc(N3C[C@H]4CC[C@@H](C3)[C@@H]4c3ccc(Cl)cc3)nc(NC3(CO)CCC3)c21 [Compound 22] | 10 to 50 | 10 to 50 | 10 to 50 |  |  |  |
| [O-][S@+]1CCc2nc(N3C[C@H]4CN(c5ncc(Cl)cn5)C[C@H]4C3)nc(NC3(CO)CCC3)c21 [Compound 25] | 10 to 50 | < 10 | < 10 |  |  |  |
| [O-][S@+]1CCc2nc(N3CC=C(c4ccc5c(c4)CC5)CC3)nc(NC3(CO)CCC3)c21 [Compound 26] |  | < 10 | < 10 |  |  |  |
| [O-][S@+]1CCc2nc(N3CCC=C(c4ccc5c(c4)CC5)CC3)nc(NC3(CO)CCC3)c21 [Compound 27] |  | < 10 | < 10 |  |  |  |
| [O-][S+]1CCc2nc(N3CCC4=C(COc5cc(Cl)ccc54)C3)nc(NC3(CO)CCC3)c21 (stereo not shown) [Compound 29] |  | < 10 | < 10 |  |  |  |
| [O-][S+]1CCc2nc(N3CC=C(c4c(F)cc(Cl)cc4F)CC3)nc(NC3(CO)CCC3)c21 (stereo not shown) [Compound 35] |  | < 10 | < 10 |  |  |  |
| CC1=C(c2ccc(Cl)cc2)CCN(c2nc3c(c(NC4(CO)CCC4)n2)[S+]([O-])CC3)C1 (stereo not shown) [Compound 36] |  |  | < 10 |  |  |  |
| [O-][S@+]1CCc2nc(N3Cc4cc5c(cc4C3)CCC5)nc(NC3(CO)CCC3)c21 [Compound 69] | < 10 | 10 to 50 |  | 50 to 100 | 74.4 |  |
| C#Cc1ccc(C2=CCN(c3nc4c(c(NC5(CO)CCC5)n3)[S@+]([O-])CC4)CC2)nc1 [Compound 70] | < 10 | < 10 |  | < 10 | 70.5 |  |
| CC#Cc1cnc(C2=CCN(c3nc4c(c(NC5(CO)CCC5)n3)[S@+]([O-])CC4)CC2)nc1 [Compound 76] | < 10 | < 10 |  | < 10 | 73.8 |  |
| [O-][S@+]1CCc2nc(N3CC=C(c4ncc5c(n4)COB5O)CC3)nc(NC3(CO)CCC3)c21 [Compound 79] | < 10 | 10 to 50 |  | < 10 | 61.5 |  |
| [O-][S@+]1CCc2nc(N3CC=C(c4ccc(Cl)c5c4CC5)CC3)nc(NC3(CO)CCC3)c21 [Compound 83] | < 10 | < 10 |  | < 10 | 77.7 |  |

— US20250326765A1, “PDE4B INHIBITOR AND USE THEREOF” (XIZANG HAISCO PHARMACEUTICAL CO., LTD., priority 2022, published 2025)
